Values after ≈ are worked out from the molar mass of the structure shown.
Legend:
[1] = Rat liver microsome stability (RLM) experiment; type: in vitro ADME; settings: rat liver microsomal stability, Table 4; 0.5 mg protein/mL, NADPH, 37° C., 0-45 min
Description: Effect embodiment 3 Rat liver microsome stability (RLM) experiment
Rat liver microsomes (Xenotech, item No. R1000, lot No. 1310030), 100 mM potassium phosphate buffer solution (pH 7.4), 10 mM magnesium chloride.
Compound preparation: 5 μL of compound DMSO mother liquor (10 mM) was added to 495 μL of methanol to obtain an intermediate solution with a compound concentration of 100 μM. Then 50 μL of the intermediate solution was taken and dissolved in 450 μL of potassium phosphate buffer solution to obtain a test solution with a final concentration of 10 μM.
NADPH regeneration system (concentration of isocitrate dehydrogenase 1 unit/mL).
Liver microsomes (final concentration 0.5 mg protein/mL).
Reaction termination solution: cold acetonitrile containing 100 ng/mL Tolbutamide and 100 ng/mL Labetalol as an internal standard.
• (1) Preparation of buffer solution: • Buffer solution A: 1.0 L of 0.1 M potassium phosphate buffer solution containing 1.0 mM EDTA • Buffer solution B: 1.0 L of 0.1 M dipotassium phosphate buffer solution containing 1.0 mM EDTA • Buffer solution C: 0.1 M potassium phosphate buffer, 1.0 mM EDTA, pH 7.4, titrated with 700 mL of buffer solution B and buffer solution A, monitored by pH meter. • (2) Preparation of reference substance (ketanserin) and concentration of administration solution of the test substance:
[…]: […] 10 mM DMSO reference substance stock solution and test substance stock solution were added to 190 μL of ACN, respectively. 1.5 μM administration solution (containing 0.75 mg/mL liver microsomes): […] administration solution and 18.75 μL of 20 mg/mL liver microsomes were added to 479.75 μL of buffer C on a wet ice. • (3) NADPH was added to buffer solution C to obtain a NADPH stock solution (6 mM). • (4) 30 μL of 1.5 μM administration solution (containing 0.75 mg/mL of liver microsomes) was taken on the wet ice and added to the wells of the test plate at different time points (0-, 5-, 15-, 30-, 45-min), respectively. • (5) Firstly, 135 μL of ACN containing IS was added to the wells of a 0 min test plate, and then 15 μL of the NADPH stock solution (6 mM) was added. • (6) The test plate at other time points and the NADPH stock solution were pre-heated in a 37° C. water bath for 5 minutes. • (7) 15 μL of the NADPH stock solution (6 mM) was taken and added to a pre-incubated test plate, and the reaction was started and timed. • (8) At 5 min, 15 min, 30 min and 45 min, 135 μL of CAN containing IS was added to the corresponding test plate respectively, and the test was completed. • (9) Test plates were shaken with a shaker (IKA, MTS 2/4) for 10 min (600 rpm/min) and then centrifuged for 15 min (Thermo Multifuge×3R, 5594 g). • (10) 50 μL of supernatant from each well was added to a 96-well sample plate containing 50 μL of ultrapure water (Millipore, ZMQS50F01), and the samples were analyzed by LC/MS.

[2] = Thermodynamic solubility in simulated intestinal fluid (TS in FaSSIF); type: physicochemical; settings: thermodynamic from solid, 37° C.
In short: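 About 0.3 mg solid shaken in 1.5 mL FaSSIF-V2 at 1000 rpm, 37° C, 4 hours, in duplicate, then filtered. Filtrate quantified by HPLC-UV against 1 μM-200 μM standards diluted from 10 mM DMSO stock.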

[3] = Pharmacokinetic experiment on rats: brain entry ratio (brain tissue/plasma concentration ratio); type: in vivo; settings: rat, male SD rats, po 10 mg/kg, Table 7
Description: The drug concentration ratio of plasma and brain tissue in the pharmacokinetic experiment on rats was used to evaluate the entry of compounds into brain. All rats fasted overnight before administration; the test compounds were dissolved and administered orally (po) to male SD rats, with 3 rats in each group. After administration of the test compounds, blood was collected by jugular vein puncture at 0.5 hours with about 0.25 mL per sample. The whole brain was taken at the same time. The plasma and brain tissue drug concentration were determined by LC-MS/MS method, and the pharmacokinetic parameters were calculated by Phoenix WinNonlin7.0. The dosage was 10 mg/kg, and the vehicle was 5% CMC-Na aqueous solution.

RLM [1]	solubility thermodynamic at 4 h [2]	Kp at 0.5 h [3]	Structure (SMILES)
0 µL/min/mg	197 µg/mL (≈ 438 µM)	0.0045	COc1cc2nnc(-c3cc(C)on3)n2nc1OCc1ccc2c(n1)CCN(C1COC1)C2 [Embodiment 84, 3-(7-Methoxy-6-((6-(oxetan-3-yl)-5,6,7,8-tetrahydro-1,6-naphthyridin-2-yl)methoxy)-[1,2,4]triazolo[4,3-b]pyridazin-3-yl)-5-methylisoxazole]
6 µL/min/mg	118 µg/mL (≈ 253 µM)	0.032	COc1cc2nnc(-c3cc(C)on3)n2nc1OCc1ccc(C2(F)CN(C3COC3)C2)cn1 [Embodiment 128]
14 µL/min/mg	85.4 µg/mL (≈ 199 µM)	0.047	COCCCOc1ccc(COc2nn3c(-c4noc(C)n4)nnc3cc2OC)nn1 [Embodiment 129]
1 µL/min/mg	175 µg/mL (≈ 456 µM)	0.02	COCc1ccc(COc2nn3c(-c4cc(C)on4)nnc3cc2OC)nn1 [Embodiment 151]
23 µL/min/mg	44 µg/mL (≈ 100 µM)	0.0243	COc1cc2nnc(-c3cc(C)on3)n2nc1OCc1ccc(OC2CCOCC2)nn1 [Embodiment 152]
5 µL/min/mg	189 µg/mL (≈ 460 µM)	0.02	COc1cc2nnc(-c3cc(C)on3)n2nc1OCc1ccc(OC2COC2)nn1 [Embodiment 153]
1 µL/min/mg	177 µg/mL (≈ 416 µM)	0.0257	COc1cc2nnc(-c3cc(C)on3)n2nc1OCc1ccc(OC2CCOC2)nn1 (stereo not drawn) [Embodiment 154]
6 µL/min/mg	246 µg/mL (≈ 625 µM)	0.0441	COc1cc2nnc(-c3cc(C)on3)n2nc1OCc1ccc2c(n1)CN(C)C2 [Embodiment 160, 3-(7-Methoxy-6-((6-methyl-6,7-dihydro-5H-pyrrolo[3,4-b]pyridin-2-yl)methoxy)-[1,2,4]triazolo[4,3-b]pyridazin-3-yl)-5-methylisoxazole]
0 µL/min/mg	300 µg/mL (≈ 702 µM)	0.01	COCCOCc1ccc(COc2nn3c(-c4cc(C)on4)nnc3cc2OC)nn1 [Embodiment 166]
9 µL/min/mg	239 µg/mL (≈ 511 µM)	0	COc1cc2nnc(-c3cc(C)on3)n2nc1OCc1ccc2c(n1)CCN(C(CO)CO)C2 [Embodiment 185]
22 µL/min/mg	95.4 µg/mL (≈ 200 µM)	0.0442	COc1cc2nnc(-c3cc(C)on3)n2nc1OCc1ccc2c(n1)CCN(C1CCOCC1)C2 [Embodiment 186]
15 µL/min/mg	176 µg/mL (≈ 361 µM)	0.0293	COc1cc2nnc(-c3cc(C)on3)n2nc1OCc1ccc2c(n1)CCN(Cc1cc(C)on1)C2 [Embodiment 187]
10 µL/min/mg	30.2 µg/mL (≈ 71.4 µM)	0.0179	COCc1cn2nc(COc3nn4c(-c5cc(C)on5)nnc4cc3OC)ccc2n1 [Embodiment 213]
10 µL/min/mg	38.9 µg/mL (≈ 83.9 µM)	0.0133	COc1cc2nnc(-c3cc(C)on3)n2nc1OCc1ccc2c(n1)CN(C1CCOCC1)C2 [Embodiment 253]
